In test [1] the target is T1, Adenosine A2a receptor (human) membrane (Homo sapiens, UniProt P29274).
T1 construct: purchased PerkinElmer RBHA2AM400UA
Description: Determination of competitive inhibition constant (Ki) for adenosine A2a receptor, [3H]-CGS-21680 radioligand. It counts as binding. Particulars: for Ki(A1)/Ki(A2a): selectivity ratio A1 over A2a. The method, then:
(§1) Test Example 1: Determination of Competitive Inhibition Constant (Ki) for Adenosine A1 and A2a Receptors
Adenosine A2a receptor (human) membrane (PerkinElmer, RBHA2AM400UA),
assay buffer for A2a (50 mM Tris-HCl, 10 mM MgCl2, 1 mM EDTA, pH7.4), used to dilute adenosine A2a receptor (human) membrane (human origin) and [^3H]-CGS-21680; and
wash buffer for A2a (50 mM Tris-HCl, 154 mM NaCl, pH7.4).
(§2) Adenosine A1 receptor membrane was diluted to 0.025 μg/μl with assay buffer for A1, and Adenosine A2a receptor membrane was diluted to 0.05 μg/μl with assay buffer for A2a, so as to obtain Adenosine A1 receptor membrane dilution and Adenosine A2a receptor membrane dilution.
(§3) The compound to be tested and CGS-15943 were diluted with DMSO, and 1 W of the compound to be tested, high value control (0.5% DMSO), low value control (1000 nM CGS-15943) were added to a 96-well plate, and 100 W of Adenosine A1 receptor membrane dilution (containing 2.5 μg of membrane) was added to each well of the 96-well plate to obtain A1 detection plate; following the same steps, 100 W of Adenosine A2a receptor membrane dilution (containing 5.0 μg membrane) was added to each well of the 96-well plate to obtain A2a detection plate.
(§4) To the A1 detection plate, 100 μl of radioisotope-labeled ligand [^3H]-DPCPX (diluted with assay buffer for A1, working concentration of which was 1.0 nM) was added; and to the A2a detection plate, 100 μl of radioisotope-labeled ligand [^3H]-CGS-21680 (diluted with assay buffer for A2a, working concentration of which was 6.0 nM) was added. The A1 and A2a detection plates were sealed with tape, and incubated at room temperature for 1 h and 2 h, respectively.
(§5) Unifilter-96 GF/C filter plates were prepared, 50 μl of 0.3% PEI was added to each well of the Unifilter-96 GF/C filter plates, and the resulting filter plates were incubated at room temperature for not less than 0.5 h.
(§6) After the incubation was completed, the reaction solution was transferred from the A1 detection plate and the A2a detection plate to two Unifilter-96 GF/C filter plates, and washed with pre-cooled wash buffer for A1 and wash buffer for A2a, and then the filter plates were dried, sealed at bottom, then 50 W of Microscint 20 fluid scintillation cocktail was added, and then the filter plates were sealed at top, and counted by MicroBeta2 Reader.
(§7) Inhibition rate %=100−(signal value of test well−signal average value of low value control)/(signal average value of high value control−signal average value of low value control)*100.
(§8) EXCEL XLfit was used to fit IC50.
(§9) The calculation formula for competitive inhibition constant (Ki) was: Ki=IC50/(1+concentration of isotope-labeled ligand/Kd), wherein Kd was the dissociation constant of the isotope-labeled ligand.

The target of test [2] is T2, Adenosine A1 receptor (human) membrane (Homo sapiens, UniProt P30542).
T2 construct: purchased PerkinElmer ES-010-M400UA
T2 sequence (P30542 1-326): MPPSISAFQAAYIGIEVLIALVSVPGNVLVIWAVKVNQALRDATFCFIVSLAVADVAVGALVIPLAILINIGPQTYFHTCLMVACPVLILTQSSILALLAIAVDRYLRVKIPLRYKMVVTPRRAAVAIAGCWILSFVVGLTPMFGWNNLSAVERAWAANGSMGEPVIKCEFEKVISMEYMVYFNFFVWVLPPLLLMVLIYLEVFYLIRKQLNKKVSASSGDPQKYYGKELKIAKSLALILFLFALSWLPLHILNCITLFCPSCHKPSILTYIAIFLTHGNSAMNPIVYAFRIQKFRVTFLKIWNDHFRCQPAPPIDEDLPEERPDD
Description: Determination of competitive inhibition constant (Ki) for adenosine A1 receptor, [3H]-DPCPX radioligand. It counts as binding. To be noted: 1.0 nM [3H]-DPCPX. The method, then:
as §1
[^3H]-DPCPX (PerkinElmer, NET974250UC),
Adenosine A1 receptor (human) membrane (PerkinElmer, ES-010-M400UA),
assay buffer for A1 (25 mM HEPES, 5 mM MgCl2, 1 mM CaCl2, 100 mM NaCl, pH7.4), used to dilute adenosine A1 receptor (human) membrane and [^3H]-DPCPX;
wash buffer for A1 (25 mM HEPES, 5 mM MgCl2, 1 mM CaCl2, 100 mM NaCl, pH7.4);
as §2, §3, §4, §5, §6, §7, §8, §9

[3] abbreviates: human A2a receptor membrane, 6.0 nM [3H]-CGS-21680, read-out: Ki(A2a).

Each structure is given as a SMILES string. Like-named read-outs stand apart in the source and are kept apart here.

T1 sequence (P29274 whole entry): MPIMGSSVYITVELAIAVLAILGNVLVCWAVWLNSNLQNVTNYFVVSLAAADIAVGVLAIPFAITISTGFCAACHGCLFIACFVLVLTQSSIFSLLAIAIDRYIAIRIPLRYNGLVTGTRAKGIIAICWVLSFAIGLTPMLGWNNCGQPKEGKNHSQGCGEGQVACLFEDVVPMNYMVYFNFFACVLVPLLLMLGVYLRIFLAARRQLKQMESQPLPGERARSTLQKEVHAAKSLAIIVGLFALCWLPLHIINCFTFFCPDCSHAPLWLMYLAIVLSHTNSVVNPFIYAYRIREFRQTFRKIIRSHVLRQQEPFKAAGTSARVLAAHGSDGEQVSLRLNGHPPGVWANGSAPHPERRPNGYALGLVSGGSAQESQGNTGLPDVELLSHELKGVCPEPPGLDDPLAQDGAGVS

A word on the Ki: it is a measure of affinity in units of concentration, obtained from inhibition or displacement. As for `Cc1ncnc2ccc(-c3ccc(N)nc3-c3ccc(F)cc3)cc12` [Compound 1, 6-(4-fluorophenyl)-5-(4-methylquinazolin-6-yl)pyridin-2-amine], the Ki in test [1] (setting [3]) is 9.6 nM; in test [2] it was 3250 nM. In addition, the “Ki(A1)/Ki(A2a)” value in test [1] was determined as 339.0.

For `Cc1ncnc2ccc(-c3cc(F)c(N)nc3-c3ccc(F)cc3)cc12` [Compound 2, 3-fluoro-6-(4-fluorophenyl)-5-(4-methylquinazolin-6-yl)pyridin-2-amine], the Ki was 2.7 nM in test [1] (setting [3]) and 698 nM in test [2]. The “Ki(A1)/Ki(A2a)” value in test [1] is 258.6.

As for `Cc1ncnc2ccc(-c3cnc(N)nc3-c3ccc(F)cc3)cc12` [Compound 3, 4-(4-fluorophenyl)-5-(4-methylquinazolin-6-yl)pyrimidin-2-amine], the Ki worked out at 1.6 nM in test [1] (setting [3]) and 178 nM in test [2]. Further, the “Ki(A1)/Ki(A2a)” value in test [1] worked out at 111.3.

Regarding `Cc1ncnc2ccc(-c3cc(F)c(NC(=O)N(C)Cc4ccccn4)nc3-c3ccc(F)cc3)cc12` [Compound 4, 3-(3-fluoro-6-(4-fluorophenyl)-5-(4-methylquinazolin-6-yl)pyridin-2-yl)-1-methyl-1-(pyridin-2-ylmethyl)urea], the figures for the Ki in test [1] and in test [2] were 13.6 nM and 5680 nM, respectively. Besides, in test [1], the “Ki(A1)/Ki(A2a)” value was found to be 417.3.

As for `CNC(=O)Nc1ncc(-c2ccc3ncnc(C)c3c2)c(-c2ccc(F)cc2)n1` [Compound 5, 1-(4-(4-fluorophenyl)-5-(4-methylquinazolin-6-yl)pyrimidin-2-yl)-3-methylurea], the Ki was 15.6 nM in test [1] (setting [3]) and more than 7920 nM in test [2]. For the same molecule, in test [1], the “Ki(A1)/Ki(A2a)” value was more than 507.5.

On to `Cc1ncnc2ccc(-c3cnc(NC(=O)NCc4ccccn4)nc3-c3ccc(F)cc3)cc12` [Compound 6, 1-(4-(4-fluorophenyl)-5-(4-methylquinazolin-6-yl)pyrimidin-2-yl)-3-(pyridine-2-methyl)urea], for which the Ki is 14.3 nM in test [1] (setting [3]) and more than 7920 nM in test [2]. The “Ki(A1)/Ki(A2a)” value in test [1] was more than 553.6.

Consider `Cc1ncnc2ccc(-c3cnc(NC(=O)N(C)Cc4ccccn4)nc3-c3ccc(F)cc3)cc12` [Compound 9, 3-(4-(4-fluorophenyl)-5-(4-methylquinazolin-6-yl)pyrimidin-2-yl)-1-methyl-1-(pyridine-2-methyl)urea], for which the results for the Ki in test [1] (setting [3]) and in test [2] were 3.7 nM and 1230 nM, respectively. Also, the “Ki(A1)/Ki(A2a)” value in test [1] was 331.8.

In the case of `Cc1ncnc2ccc(-c3cnc(NC(=O)N4CCC(C#N)CC4)nc3-c3ccc(F)cc3)cc12` [Compound 10, 4-cyano-N-(4-(4-fluorophenyl)-5-(4-methylquinazolin-6-yl)pyrimidin-2-yl) piperidine-1-carboxamide], the Ki came out at 4.7 nM in test [1] (setting [3]) and 690 nM in test [2]. Moreover, the “Ki(A1)/Ki(A2a)” value in test [1] turned out to be 146.8.

Take `Cc1ncnc2ccc(-c3cnc(NC(=O)N(C)c4ccccc4)nc3-c3ccc(F)cc3)cc12` [Compound 12, 3-(4-(4-fluorophenyl)-5-(4-methylquinazolin-6-yl)pyrimidin-2-yl)-1-methyl-1-phenylurea]: the Ki in test [1] (setting [3]) worked out at 8.8 nM; in test [2], 1210 nM. The “Ki(A1)/Ki(A2a)” value in test [1] is given as 137.6.

For the molecule `COC1CCN(C(=O)Nc2ncc(-c3ccc4ncnc(C)c4c3)c(-c3ccc(F)cc3)n2)CC1` [Compound 13, N-(4-(4-fluorophenyl)-5-(4-methylquinazolin-6-yl)pyrimidin-2-yl)-4-methoxypiperidine-1-carboxamide], the Ki in test [1] (setting [3]) was found to be 9.8 nM; in test [2], 1320 nM. Moreover, in test [1], the “Ki(A1)/Ki(A2a)” value worked out at 134.5.

As for `Cc1cc(-c2cnc(NC(=O)N(C)Cc3ccccn3)nc2-c2ccc(F)cc2)cc(Cl)n1` [Compound 14, 3-(5-(2-chloro-6-methylpyridin-4-yl)-4-(4-fluorophenyl)pyrimidin-2-yl)-1-methyl-1-(pyridin-2-ylmethyl)urea], the Ki in test [1] (setting [3]) was found to be 8.1 nM; in test [2] it was 5310 nM. Moreover, the “Ki(A1)/Ki(A2a)” value in test [1] was determined as 656.1.

In the case of `CN(Cc1ccccn1)C(=O)Nc1ncc(-c2cc(Cl)nc(C(F)(F)F)c2)c(-c2ccc(F)cc2)n1` [Compound 16, 3-(5-(2-chloro-6-(trifluoromethyl)pyridin-4-yl)-4-(4-fluorophenyl)pyrimidin-2-yl)-1-methyl-1-(pyridin-2-ylmethyl)urea], the Ki in test [1] (setting [3]) is 21.5 nM; in test [2] it was 7770 nM. The “Ki(A1)/Ki(A2a)” value in test [1] is recorded as 361.6.

`Cc1cc(-c2cnc(N)nc2-c2ccc(F)cc2)cc(Cl)n1` [Compound 17, 5-(2-chloro-6-methylpyridin-4-yl)-4-(4-fluorophenyl)pyrimidin-2-amine]: the figures for the Ki in test [1] (setting [3]) and in test [2] were 4.6 nM and 205 nM, respectively. In test [1], the “Ki(A1)/Ki(A2a)” value is reported as 44.5.

Regarding `Cc1cc(-c2cnc(NC(=O)N3CCC(C#N)CC3)nc2-c2ccc(F)cc2)cc(Cl)n1` [Compound 18, N-(5-(2-chloro-6-methylpyridin-4-yl)-4-(4-fluorophenyl)pyrimidin-2-yl)-4-cyanopiperidine-1-carboxamide], the Ki in test [1] (setting [3]) stood at 18.9 nM; in test [2], 3070 nM. The “Ki(A1)/Ki(A2a)” value in test [1] stood at 162.5.

Take `Cc1cc(Cl)cc(-c2cnc(NC(=O)N3CCC(N4CCCCC4)CC3)nc2-c2ccc(F)cc2)c1` [Compound 21, N-(5-(3-chloro-5-methylphenyl)-4-(4-fluorophenyl)pyrimidin-2-yl)-[1,4′-dipiperidine]-1′-carboxamide]: the results for the Ki in test [1] (setting [3]) and in test [2] were 7.3 nM and 4670 nM, respectively. In addition, in test [1], the “Ki(A1)/Ki(A2a)” value amounted to 639.1.

With `Cc1cc(Cl)cc(-c2cnc(NC(=O)N3CCC(N4CCCCC4)CC3)nc2-c2ccc(C)o2)c1` [Compound 22, N-(5-(3-chloro-5-methylphenyl)-4-(5-methylfuran-2-yl)pyrimidin-2-yl)-[1,4′-bipiperidine]-1′-carboxamide], the Ki in test [1] (setting [3]) turned out to be 6.6 nM; in test [2], 1590 nM. Moreover, the “Ki(A1)/Ki(A2a)” value in test [1] is reported as 240.7.

`Cc1ncnc2ccc(-c3nnc(NC(=O)N(C)Cc4ccccn4)nc3-c3ccc(F)cc3)cc12` [Compound 24, 3-(5-(4-fluorophenyl)-6-(4-methylquinazolin-6-yl)-1,2,4-triazolin-3-yl)-1-methyl-1-(pyridine-2-methyl)urea]: in test [1], the Ki was 26.8 nM and the “Ki(A1)/Ki(A2a)” value stood at 139.1. In test [2], this molecule yielded a Ki of 3730 nM.

On to `Cc1ccc(-c2nc(NC(=O)N(C)Cc3ccccn3)nnc2-c2ccc3ncnc(C)c3c2)o1` [Compound 25, 1-methyl-3-(5-(5-methylfuran-2-yl)-6-(4-methylquinazolin-6-yl)-1,2,4-triazin-3-yl)-1-(pyridin-2-yl-methyl)urea], for which the values for the Ki in test [1] and in test [2] were 3.9 nM and 178 nM, respectively. Also, the “Ki(A1)/Ki(A2a)” value in test [1] is 45.7.

For `Cc1cc(-c2nnc(NC(=O)N3CCC(N4CCCCC4)CC3)nc2-c2ccc(C)o2)cc(Cl)n1` [Compound 26, N-(6-(2-chloro-6-methylpyridin-4-yl)-5-(5-methylfuran-2-yl)-1,2,4-triazin-3-yl)-[1,4′-bipiperidine]-1′-carboxamide], the Ki in test [1] (setting [3]) was 9.9 nM; in test [2], 4000 nM. In test [1], the “Ki(A1)/Ki(A2a)” value came to 403.8.
